Measurements as given in ChEMBL document CHEMBL1133579, “Derivation of pharmacophore and CoMFA models for leukotriene D(4) receptor antagonists of the quinolinyl(bridged)aryl series” (J Med Chem, 2000).

Tests used:
[1] = molecular target: T1, Cysteinyl leukotriene receptor 1 (Cavia porcellus, UniProt Q2NNR5); assay: In vitro binding affinity towards Cysteinyl leukotriene D4 receptor by using [3H]LTD4 binding assay in guinea pig lung membranes; assay type: cell membranes, Membrane
T1 sequence (Q2NNR5 whole entry): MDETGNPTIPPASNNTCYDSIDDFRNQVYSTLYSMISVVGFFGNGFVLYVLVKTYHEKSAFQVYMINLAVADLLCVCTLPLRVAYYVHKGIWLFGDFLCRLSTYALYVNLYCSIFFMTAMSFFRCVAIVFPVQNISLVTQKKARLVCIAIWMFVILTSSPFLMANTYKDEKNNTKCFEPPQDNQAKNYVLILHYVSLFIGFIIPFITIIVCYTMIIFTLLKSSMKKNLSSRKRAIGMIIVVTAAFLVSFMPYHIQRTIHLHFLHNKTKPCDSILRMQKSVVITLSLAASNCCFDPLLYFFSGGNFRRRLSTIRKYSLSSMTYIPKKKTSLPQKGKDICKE

[2] = molecular target: T1, Cysteinyl leukotriene receptor 1; assay: In vitro binding affinity towards Cysteinyl leukotriene D4 receptor by using [3H]LTD4 binding assay in guinea pig lung membranes; IA means inactive; assay type: cell membranes

SMILES	Ki [1]	Ki [2]
O=C(O)CCCc1ccc(NC(=O)Cc2ccc(OCc3ccc4ccc(Cl)cc4n3)cc2)cc1	4.8 nM	–
CC(C(=O)Nc1ccc(CCCC(=O)O)cc1)c1ccc2cc(OCc3ccc4ccccc4n3)ccc2c1 (stereo not given)	38 nM	–
O=C(O)c1ccc(Cc2noc(-c3ccc4ccc(OCc5ccc6ccccc6n5)cc4c3)n2)cc1	15 nM	–
O=C(Cc1ccc(OCc2ccc3ccccc3n2)cc1)Nc1ccc(Cc2nnn[nH]2)cc1	108 nM	–
CC(C(=O)Nc1ccc(C(=O)O)cc1)c1ccc2cc(OCc3ccc4ccccc4n3)ccc2c1 (stereo not given)	118 nM	–
CN(C(=O)Cc1ccc(OCc2ccc3ccccc3n2)cc1)c1ccc(CCCC(=O)O)cc1	297 nM	–
CC(C(=O)NCc1ccc(CC(=O)O)cc1)c1ccc2cc(OCc3ccc4ccccc4n3)ccc2c1 (stereo not given)	134 nM	–
O=C(Nc1cccc2c(=O)cc(C(=O)O)oc12)c1ccc(OCc2ccc3ccccc3n2)cc1	168 nM	–
O=C(O)c1ccc(CCNC(=O)c2cc(=O)c3ccc(OCc4ccc5ccccc5n4)cc3o2)cc1	–	Not Active
CC(C(=O)NCc1ccc(C(=O)O)cc1)c1ccc2cc(OCc3ccc4ccccc4n3)ccc2c1 (stereo not given)	70 nM	–
O=C(Nc1cccc2c(=O)cc(C(=O)O)oc12)c1ccc2ccc(OCc3ccc4ccccc4n3)cc2c1	30 nM	–
O=C(O)c1ccc(CCNC(=O)c2ccc3ccc(OCc4ccc5ccccc5c4)cc3c2)cc1	–	Not Active
O=C(O)c1ccc(CCNC(=O)c2ccc3ccc(OCc4ccc(-c5ccccc5)cn4)cc3c2)cc1	79 nM	–
CC(C(=O)NCCCCC(=O)O)c1ccc2cc(OCc3ccc4ccccc4n3)ccc2c1 (stereo not given)	360 nM	–
O=C(O)c1ccc(CCNS(=O)(=O)c2ccc3ccc(OCc4ccc5ccccc5n4)cc3c2)cc1	2.6 nM	–
Cc1ccccc1S(=O)(=O)NC(=O)c1ccc(CCNC(=O)c2ccc3ccc(OCc4ccc5ccccc5n4)cc3c2)cc1	15 nM	–
O=C(Cc1ccc(OCCCCc2ccccc2)cc1)Nc1ccc(CCCc2nnn[nH]2)cc1	2590 nM	–
O=C(O)c1ccc(CCCOc2ccc3ccc(OCc4ccc5ccccc5n4)cc3c2)cc1	5.6 nM	–
Cc1cn(Cc2ccc3ccccc3n2)c2cc(C(=O)NCCc3ccc(C(=O)O)cc3)ccc12	–	Not Active
O=C(Cc1ccc(OCc2ccc3ccccc3n2)cc1)Nc1ccc(CCCc2nnn[nH]2)cc1	88 nM	–
O=C(Nc1ccc(CCCc2nnn[nH]2)cc1)c1ccc(OCc2ccc3ccccc3n2)cc1	595 nM	–
Cn1cc(CC(=O)NCc2ccc(-c3nn[nH]n3)cc2)c2cc(OCc3ccc4ccccc4n3)ccc21	1050 nM	–
O=C(O)c1ccc(OCC(O)COc2ccc3ccc(OCc4ccc5ccccc5n4)cc3c2)cc1 (stereo not given)	4 nM	–
O=C(O)c1ccc(CCNC(=O)C2CCc3ccc(OCc4ccc5ccccc5n4)cc3O2)cc1 (stereo not given)	237 nM	–
O=C(O)c1ccc2c(ccn2Cc2ccc3ccc(OCc4ccc5ccccc5n4)cc3c2)c1	30 nM	–
O=C(O)c1ccc(CCNC(=O)c2ccc3ccc(OCc4ccc5ccccc5n4)cc3c2)cc1	1.05 nM	–
O=C(O)CCCc1ccc(NC(=O)Cc2ccc(OCc3ccc4ccccc4n3)cc2)cc1	7.3 nM	–
CC(C(=O)NCc1cccc(-c2nnn[nH]2)c1)c1ccc2cc(OCc3ccc4ccccc4n3)ccc2c1 (stereo not given)	29 nM	–
O=C(O)Cc1ccc(CCNS(=O)(=O)c2ccc3ccc(OCc4ccc5ccccc5n4)cc3c2)cc1	2.4 nM	–
O=C(O)CCCc1ccc(NC(=O)Cc2cccc(OCc3ccc4ccccc4n3)c2)cc1	40 nM	–
